Experimental findings from PMC11051198, “Synthesis and Late-Stage Modification of (−)-Doliculide Derivatives Using Matteson’s Homologation Approach” (Marine Drugs, 2024) are described below.

Common to all, as to assay type: cell-based
Assay [1] relates to HepG2. The experiment in a line: MTT cytotoxicity assay, HepG2. Conditions: HepG2 human hepatocellular carcinoma, 5 d incubation, 37 °C, 5% CO2, DMEM + 10% FBS, mean ± SD of two independent measurements. The protocol: (§1) The cell cultures were cultivated at 37 °C under an atmosphere containing 5% CO2. Before usage, Dulbecco’s Modified Eagle Medium (DMEM) from Gibco (Thermo Fisher Scientific) was supplemented with 10% fetal bovine serum (FBS) from Gibco. Cells were used between passage 5 and 30 and were split separately for at least two passages to obtain biological repeats. Cells were washed with PBS and 0.5 mL trypsin was added before treatment. Cells were then incubated for 5 min before adding 10 mL medium containing 10% FBS. Per well, 120 µL cell suspension 5 × 10^4 cells/mL (CHO-K1, HCT-116. U-2 OS, KB3.1) or 1 × 10^5 cells/mL (HepG2) cells were seeded in transparent 96-well cell bind plate and incubated for 2 h at 37 °C and an atmosphere of 5% CO2. Each compound was tested in a serial dilution so that the starting concentration is 111 µg/mL, which is diluted by 1:3 as well as the internal solvent control prepared in DMEM with 10% FBS. After 5 d incubation at 37 °C and an atmosphere of 5% CO2, 20 μL of 5 mg/mL MTT (thiazolyl blue tetrazolium bromide) in PBS was added per well and cells were further incubated until coloration of the cells. The medium was then discarded and 100 μL 2-propanol/10 N HCl (250:1) added to the cells. The plates were analyzed by measuring the absorbance at 570 nm and 630 nm as reference using a microplate reader Infinite® 200 Pro from Tecan (Männedorf, Switzerland). Absorption is then converted to cell viability expressed as percentage relative to the respective solvent control. The calculated percentage of growth inhibition were determined by sigmoidal curve fitting using GraphPad (Boston, MA, USA) Prism software (version 10.0.2). Two independent measurements were generated for mean and standard deviation.

Assay [2] concerns CHO-K1. The assay is described as follows: MTT cytotoxicity assay, CHO-K1. Conditions: CHO-K1 mutagenized Chinese hamster ovary, 5 d incubation, 37 °C, 5% CO2, DMEM + 10% FBS, mean ± SD of two independent measurements. As to the method: as §1
A general note: Formazan colour is commonly taken as a measure of viable cells.

For assay [3], the system named is HCT-116. The assay is described as follows: MTT cytotoxicity assay, HCT-116. Conditions: HCT-116 human colon carcinoma, 5 d incubation, 37 °C, 5% CO2, DMEM + 10% FBS, mean ± SD of two independent measurements. The protocol: as §1
In assay [4] the test system is U-2 OS. The assay is described as follows: MTT cytotoxicity assay, U-2 OS. Conditions: U-2 OS human bone osteosarcoma, 5 d incubation, 37 °C, 5% CO2, DMEM + 10% FBS, mean ± SD of two independent measurements. As to the method:
as §1

For assay [5], the system named is KB3.1. The assay is described as follows: MTT cytotoxicity assay, KB3.1. Conditions: KB3.1 human epidermoid carcinoma cell line, 5 d incubation, 37 °C, 5% CO2, DMEM + 10% FBS, mean ± SD of two independent measurements. As to the method:
as §1

Where [6] appears, read: ≤ values: individual results varied widely, given as a range.

Usually IC50 stands for the midpoint of a concentration-inhibition curve. Take `C[C@H]1C[C@@H](C)[C@@H](O)C[C@@H](CC#C[Si](C)(C)C)OC(=O)[C@@H](Cc2ccc(O)c(I)c2)N(C)C(=O)CNC(=O)[C@@H](C)C1` [Compound 8a, (3R,9S,11S,13R,14S,16R)-14-Hydroxy-3-(4-hydroxy-3-iodobenzyl)-4,9,11,13-tetramethyl-16-[3-(trimethylsilyl)prop-2-yn-1-yl]-1-oxa-4,7-diazacyclohexadecane-2,5,8-trione]: the IC50 in assay [1] is 20000 ± 4500 nM; in assay [2], 380 ± 44 nM; in assay [3] (setting [6]), 8 ± 7.3 nM; in assay [4] (setting [6]) it was 336 ± 146 nM; in assay [5] (setting [6]), at most 115 nM.
As for `C=CC[C@@H]1C[C@H](O)[C@H](C)C[C@H](C)C[C@H](C)C(=O)NCC(=O)N(C)[C@H](Cc2ccc(O)c(I)c2)C(=O)O1` [Compound 8b, (3R,9S,11S,13R,14S,16R)-16-Allyl-14-hydroxy-3-(4-hydroxy-3-iodobenzyl)-4,9,11,13-tetramethyl-1-oxa-4,7-diazacyclohexadecane-2,5,8-trione], the half-inhibitory concentration (IC50) was over 60200 nM in assay [1]; 264 ± 13 nM in assay [2]; 16 ± 8 nM in assay [3] (setting [6]); 521 ± 488 nM in assay [4] (setting [6]); 103 ± 65 nM in assay [5] (setting [6]).
The like results for `C#CC[C@@H]1C[C@H](O)[C@H](C)C[C@H](C)C[C@H](C)C(=O)NCC(=O)N(C)[C@H](Cc2ccc(O)c(I)c2)C(=O)O1` [Compound 8c, (3R,9S,11S,13R,14S,16R)-14-Hydroxy-3-(4-hydroxy-3-iodobenzyl)-4,9,11,13-tetramethyl-16-(prop-2-yn-1-yl)-1-oxa-4,7-diazacyclohexadecane-2,5,8-trione] were, in that order, 147 ± 65 nM, 474 ± 147 nM, 65 ± 16 nM, 49 ± 33 nM and 114 ± 49 nM.
Taken in the same sequence, the figures for `C[C@H]1C[C@@H](C)[C@@H](O)C[C@@H](Cc2cn(Cc3ccccc3)nn2)OC(=O)[C@@H](Cc2ccc(O)c(I)c2)N(C)C(=O)CNC(=O)[C@@H](C)C1` [Compound 9a, (3R,9S,11S,13R,14S,16R)-16-[(1-Benzyl-1H-1,2,3-triazol-4-yl)methyl]-14-hydroxy-3-(4-hydroxy-3-iodobenzyl)-4,9,11,13-tetramethyl-1-oxa-4,7-diazacyclohexadecane-2,5,8-trione] were over 49600 nM, 24 ± 9 nM, 309 ± 81 nM, at most 80 nM and 47 ± 13 nM.
`CCCCCn1cc(C[C@@H]2C[C@H](O)[C@H](C)C[C@H](C)C[C@H](C)C(=O)NCC(=O)N(C)[C@H](Cc3ccc(O)c(I)c3)C(=O)O2)nn1` [Compound 9b, (3R,9S,11S,13R,14S,16R)-14-hydroxy-3-(4-hydroxy-3-iodobenzyl)-4,9,11,13-tetramethyl-16-((1-pentyl-1H-1,2,3-triazol-4-yl)methyl)-1-oxa-4,7-diazacyclohexadecane-2,5,8-trione]: the IC50 in assay [2] was 69 ± 12 nM; in assay [3] (setting [6]) it was at most 110 nM; in assay [4] (setting [6]) it was at most 110 nM; in assay [5] (setting [6]), 41 ± 14 nM.
Turning to `C[C@H]1C[C@@H](C)[C@@H](O)C[C@@H](Cc2cn(CCOCCOCC(=O)O)nn2)OC(=O)[C@@H](Cc2ccc(O)c(I)c2)N(C)C(=O)CNC(=O)[C@@H](C)C1` [Compound 9d, 2-{2-[2-(4-{[(3R,9S,11S,13R,14S,16R)-14-Hydroxy-3-(4-hydroxy-3-iodobenzyl)-4,9,11,13-tetramethyl-2,5,8-trioxo-1-oxa-4,7-diazacyclohexadecan-16-yl]methyl}-1H-1,2,3-triazol-1-yl)ethoxy]ethoxy}acetic Acid], the IC50 in assay [1], in assay [2], in assay [3], in assay [4] and in assay [5] was over 46200 nM throughout.
As to `C[C@H]1C[C@@H](C)[C@@H](O)C[C@@H](Cc2cn(CCOCCOCCO)nn2)OC(=O)[C@@H](Cc2ccc(O)c(I)c2)N(C)C(=O)CNC(=O)[C@@H](C)C1` [Compound 9e, (3R,9S,11S,13R,14S,16R)-14-Hydroxy-3-(4-hydroxy-3-iodobenzyl)-16-((1-(2-(2-(2-hydroxyethoxy)ethoxy)ethyl)-1H-1,2,3-triazol-4-yl)methyl)-4,9,11,13-tetramethyl-1-oxa-4,7-diazacyclohexadecane-2,5,8-trione], the IC50 in assay [1] was over 47000 nM; in assay [2] it was over 47000 nM; in assay [3], 8550 ± 1140 nM; in assay [4], 23000 ± 4400 nM; in assay [5], 10500 ± 300 nM.
Regarding `C[C@H]1C[C@@H](C)[C@@H](O)C[C@@H](Cc2cn(CCOCCOCCNC(=O)OC(C)(C)C)nn2)OC(=O)[C@@H](Cc2ccc(O)c(I)c2)N(C)C(=O)CNC(=O)[C@@H](C)C1` [Compound 9f, tert-Butyl (2-{2-[2-(4-{[(3R,9S,11S,13R,14S,16R)-14-hydroxy-3-(4-hydroxy-3-iodobenzyl)-4,9,11,13-tetramethyl-2,5,8-trioxo-1-oxa-4,7-diazacyclohexadecan-16-yl]methyl}-1H-1,2,3-triazol-1-yl)ethoxy]ethoxy}ethyl)carbamate], the half-inhibitory concentration (IC50) in assay [1] was over 41700 nM; in assay [2] it was 6380 ± 2810 nM; in assay [3] (setting [6]) it was 86 ± 79 nM; in assay [4], 1560 ± 670 nM; in assay [5] (setting [6]), 722 ± 180 nM.
Consider `C[C@H]1C[C@@H](C)[C@@H](O)C[C@@H](Cc2cn(CCOCCOCCOCCNC(=O)OC(C)(C)C)nn2)OC(=O)[C@@H](Cc2ccc(O)c(I)c2)N(C)C(=O)CNC(=O)[C@@H](C)C1` [Compound 9g, tert-Butyl [2-(2-{2-[2-(4-{[(3R,9S,11S,13R,14S,16R)-14-hydroxy-3-(4-hydroxy-3-iodobenzyl)-4,9,11,13-tetramethyl-2,5,8-trioxo-1-oxa-4,7-diazacyclohexadecan-16-yl]methyl}-1H-1,2,3-triazol-1-yl)ethoxy]ethoxy}ethoxy)ethyl]carbamate], for which the IC50 is over 39700 nM in assay [1]; 12900 ± 3000 nM in assay [2]; 432 ± 140 nM in assay [3] (setting [6]); 2940 ± 1750 nM in assay [4]; 3290 ± 1390 nM in assay [5].
Regarding `C[C@H]1C[C@@H](C)[C@@H](O)C[C@@H](CC#Cc2ccccc2)OC(=O)[C@@H](Cc2ccc(O)c(I)c2)N(C)C(=O)CNC(=O)[C@@H](C)C1` [Compound 10a, (3R,9S,11S,13R,14S,16R)-14-Hydroxy-3-(4-hydroxy-3-iodobenzyl)-4,9,11,13-tetramethyl-16-(3-phenylprop-2-yn-1-yl)-1-oxa-4,7-diazacyclohexadecane-2,5,8-trione], the IC50 worked out at 15500 ± 300 nM in assay [1]; 247 ± 145 nM in assay [2]; 14.5 ± 0.6 nM in assay [3] (setting [6]); 683 ± 87 nM in assay [4] (setting [6]); 49 ± 29 nM in assay [5] (setting [6]).
Turning to `COc1ccc(C#CC[C@@H]2C[C@H](O)[C@H](C)C[C@H](C)C[C@H](C)C(=O)NCC(=O)N(C)[C@H](Cc3ccc(O)c(I)c3)C(=O)O2)cc1` [Compound 10b, (3R,9S,11S,13R,14S,16R)-14-Hydroxy-3-(4-hydroxy-3-iodobenzyl)-16-[3-(4-methoxyphenyl)prop-2-yn-1-yl]-4,9,11,13-tetramethyl-1-oxa-4,7-diazacyclohexadecane-2,5,8-trione], the IC50 was over 51500 nM in assay [1]; 1460 ± 280 nM in assay [2]; 153 ± 56 nM in assay [3] (setting [6]); 1880 ± 110 nM in assay [4]; 459000 ± 111000 nM in assay [5].
Regarding `C[C@H]1C[C@@H](C)[C@@H](O)C[C@@H](CC#Cc2ccc([N+](=O)[O-])cc2)OC(=O)[C@@H](Cc2ccc(O)c(I)c2)N(C)C(=O)CNC(=O)[C@@H](C)C1` [Compound 10c, (3R,9S,11S,13R,14S,16R)-14-Hydroxy-3-(4-hydroxy-3-iodobenzyl)-4,9,11,13-tetramethyl-16-[3-(4-nitrophenyl)prop-2-yn-1-yl]-1-oxa-4,7-diazacyclohexadecane-2,5,8-trione], the IC50 in assay [1] was over 50400 nM; in assay [2], 586 ± 205 nM; in assay [3] (setting [6]), 10 ± 3 nM; in assay [4] (setting [6]), 491 ± 95 nM; in assay [5] (setting [6]), 98 ± 41 nM.
